Measurements taken from paper PMC11714206, “Massively Parallel Screening of Toll/Interleukin‐1 Receptor (TIR)‐Derived Peptides Reveals Multiple Toll‐Like Receptors (TLRs)‐Targeting Immunomodulatory Peptides” (Advanced Science, 2024).
One block for each substance: values may come before it.

Biological target: T1, MAL^TIR (Homo sapiens, UniProt P58753)
T1 construct: MAL (residues 79–221); 6xHis; made in house; host or cells: E. coli BL21 (DE3)
Test: T‐Surf phage library (P8 and P3) selection against MAL^TIR, four rounds, NGS read counts
Format: binding
Conditions: for P8_MAL Rank (after) / P8_MAL Rank (before): P8 library; for Population: 4th round of selection against MAL TIR, share of NGS reads; for P3_MAL Rank (after) / P3_MAL Rank (before): P3 library
How it was run: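 Read counts come from NGS of phage pools after the fourth selection round, barcoded by 20-cycle PCR and filtered for quality ≥30. Each round: phage incubated 1 h at RT on immobilised TIR protein (5 µg mL^−1, BSA-blocked), washed, HCl-eluted and amplified in E. coli TG1.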

[1] = selection against MAL, rank after grouping
[2] = selection against MAL, rank before grouping
[3] = P8_MAL: rank by count after grouping
[4] = P8_MAL: rank by count before grouping
[5] = P8_MAL pool: P8 T-Surf phage library
[6] = 4R selection against MAL, rank after grouping
[7] = 4R selection against MAL, rank before grouping
[8] = selection against MAL TIR, rank by count after grouping
[9] = selection against MAL TIR, rank by count before grouping
[10] = P3_MAL pool: P3 T-Surf phage library
[11] = P3_MAL: rank by count after grouping
[12] = P3_MAL: rank by count before grouping
[13] = selection against MAL, rank by count after grouping
[14] = selection against MAL, rank by count before grouping

T1 sequence (P58753 79-221): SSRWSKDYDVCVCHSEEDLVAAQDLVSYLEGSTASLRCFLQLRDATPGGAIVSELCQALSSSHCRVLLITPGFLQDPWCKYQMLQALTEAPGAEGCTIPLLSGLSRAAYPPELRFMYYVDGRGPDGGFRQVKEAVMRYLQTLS

Substance: WFYERLVSLILRVTKV
Population [5]: 0.00309%

Substance: LFFWECLKKLLRRDGR
P8_MAL Rank (after) [6]: 601 | P8_MAL Rank (before) [7]: 2071

Substance: GFYERQVSLVLGDTKV
P8_MAL Rank (after) [8]: 281 | P8_MAL Rank (before) [9]: 1569

Substance: WFLFTVRSAIYAMDQVADT
Rank (after) [3]: 459 | Rank (before) [4]: 1324

Substance: KERLHQWKLALTQAANLSGW
Population [10]: 0.00376% | Rank (after) [11]: 111 | Rank (before) [12]: 178

Substance: RHNFIGYLYQALYRIG
P8_MAL Rank (after) [13]: 723 | P8_MAL Rank (before) [14]: 2174

Substance: KMQKWKDALYEAANPT
P3_MAL Rank (after) [13]: 734 | P3_MAL Rank (before) [14]: 3683

Substance: HQASWNRLWEQLKPRT
P3_MAL Rank (after) [1]: 505 | P3_MAL Rank (before) [2]: 2891

Substance: AFFLGAAEKRAGQSDDX
Population [5]: 0.00371%

Substance: YAFTGHLRRYLVQRGV
Population [10]: 0.00338%

Substance: LFFWESLKQLLRRWP
P8_MAL Rank (after) [1]: 563 | P8_MAL Rank (before) [2]: 2097

Substance: RNNFLGYLYQALYRIG
P8_MAL Rank (after) [6]: 604 | P8_MAL Rank (before) [7]: 2263

Substance: LFFWESLKQLLRSDG
Rank (after) [3]: 178 | Rank (before) [4]: 2104

Substance: LELGDPYFWSKLRYAM
Rank (after) [11]: 453 | Rank (before) [12]: 2129

Substance: WFYERLVSLIRRDTQV
Rank (after) [3]: 106 | Rank (before) [4]: 1220

Substance: YAFTGHLHHYFAAKGIKM
Rank (after) [11]: 385 | Rank (before) [12]: 1428

Substance: ERILNQLRRSSQSIAK
Rank (after) [11]: 421 | Rank (before) [12]: 2078

Substance: AFFCAQQKSVLRNPTK
P8_MAL Rank (after) [1]: 516 | P8_MAL Rank (before) [2]: 1725

Substance: WFYEPLVSLILRDTKL
P8_MAL Rank (after) [8]: 236 | P8_MAL Rank (before) [9]: 1293

Substance: NQWRNAQTAAAKLSGW
Rank (after) [11]: 152 | Rank (before) [12]: 3399

Substance: RLLKWKEALHQFIAG
P3_MAL Rank (after) [8]: 264 | P3_MAL Rank (before) [9]: 2518

Substance: NQWRNALTAATNLSGG
Rank (after) [11]: 119 | Rank (before) [12]: 3403

Substance: LFFWASLNKLLRSDGR
P8_MAL Rank (after) [6]: 648 | P8_MAL Rank (before) [7]: 2065

Substance: YAFTSHLHHALRLNKIETF
P3_MAL Rank (after) [13]: 711 | P3_MAL Rank (before) [14]: 1475

Substance: WFLFTVRSAIYSISRA
P8_MAL Rank (after) [13]: 692 | P8_MAL Rank (before) [14]: 1346

Substance: SLRNKLLSHLLEEFKS
Rank (after) [11]: 418 | Rank (before) [12]: 3066

Substance: AFLWAQLNSVLGNPTM
Rank (after) [3]: 156 | Rank (before) [4]: 1778

Substance: FLNFRGLYVRNYFLGP
Rank (after) [11]: 462 | Rank (before) [12]: 1145

Substance: FTLAVQVRNLLVGAFI
P8_MAL Rank (after) [8]: 262 | P8_MAL Rank (before) [9]: 1099

Substance: AFFWAHLKSVLGKPTM
P8_MAL Rank (after) [8]: 233 | P8_MAL Rank (before) [9]: 1601

Substance: YAFTSHLYDRLQRSGI
P3_MAL Rank (after) [6]: 606 | P3_MAL Rank (before) [7]: 1470

Substance: KTLAGLLYDHLFRLRL
Population [10]: 0.0233% | Rank (after) [11]: 101 | Rank (before) [12]: 102

The remaining lines, values ahead:

P8_MAL Rank (after) [1]: 515 | P8_MAL Rank (before) [2]: 1644
Substance: AFFWAQLKSELGNPSM

Rank (after) [3]: 462 | Rank (before) [4]: 1955
Substance: AVRYTILINLTHTTNF

P8_MAL Rank (after) [1]: 535 | P8_MAL Rank (before) [2]: 2162
Substance: LCFRESLKQLLRSNGR

P8_MAL Rank (after) [8]: 194 | P8_MAL Rank (before) [9]: 1684
Substance: AFFWEQLRTVLGKPSI

P3_MAL Rank (after) [6]: 636 | P3_MAL Rank (before) [7]: 2547
Substance: RLRKWKEALHQFHSWG

Population [5]: 0.00309%
Substance: HFFGFN*KAFWAKPAX

P8_MAL Rank (after) [8]: 202 | P8_MAL Rank (before) [9]: 2241
Substance: RNFMAYLFQALAHKGI

P8_MAL Rank (after) [1]: 551 | P8_MAL Rank (before) [2]: 2253
Substance: RKFWAYLFQALANKGS

P3_MAL Rank (after) [13]: 703 | P3_MAL Rank (before) [14]: 2351
Substance: RGFLNHLHHHLQPNDH

Rank (after) [3]: 120 | Rank (before) [4]: 2553
Substance: TFLGPLYNALVQAGIP

P8_MAL Rank (after) [1]: 501 | P8_MAL Rank (before) [2]: 2512
Substance: SLLYDHLRCWAFVRF

Population [10]: 0.00451% | Rank (after) [11]: 104 | Rank (before) [12]: 149
Substance: YAFTGHLHRYLVQRAL

P3_MAL Rank (after) [6]: 608 | P3_MAL Rank (before) [7]: 2730
Substance: PNLRTKVPDYLKRTKT

Rank (after) [3]: 116 | Rank (before) [4]: 732
Substance: KNLFNELVSKNIRTFM

P3_MAL Rank (after) [13]: 753 | P3_MAL Rank (before) [14]: 1651
Substance: VEPTQVRTQSGAAENA

P8_MAL Rank (after) [1]: 500 | P8_MAL Rank (before) [2]: 1159
Substance: WFYERLLTVIDRDTEV

P8_MAL Rank (after) [13]: 679 | P8_MAL Rank (before) [14]: 1635
Substance: AFFWAQLKSVLQSDD

P3_MAL Rank (after) [6]: 586 | P3_MAL Rank (before) [7]: 2982
Substance: SLLKYKEALPQFHSWL

Rank (after) [3]: 413 | Rank (before) [4]: 1436
Substance: SFLHFLLFSRPDTEYI

P8_MAL Rank (after) [13]: 684 | P8_MAL Rank (before) [14]: 1253
Substance: WFYERRVSLILLLTIV
